These results are taken from ChEMBL document CHEMBL4371002 (J Med Chem, 2018).

Sequence of D(2) dopamine receptor (Homo sapiens) (P14416 whole entry): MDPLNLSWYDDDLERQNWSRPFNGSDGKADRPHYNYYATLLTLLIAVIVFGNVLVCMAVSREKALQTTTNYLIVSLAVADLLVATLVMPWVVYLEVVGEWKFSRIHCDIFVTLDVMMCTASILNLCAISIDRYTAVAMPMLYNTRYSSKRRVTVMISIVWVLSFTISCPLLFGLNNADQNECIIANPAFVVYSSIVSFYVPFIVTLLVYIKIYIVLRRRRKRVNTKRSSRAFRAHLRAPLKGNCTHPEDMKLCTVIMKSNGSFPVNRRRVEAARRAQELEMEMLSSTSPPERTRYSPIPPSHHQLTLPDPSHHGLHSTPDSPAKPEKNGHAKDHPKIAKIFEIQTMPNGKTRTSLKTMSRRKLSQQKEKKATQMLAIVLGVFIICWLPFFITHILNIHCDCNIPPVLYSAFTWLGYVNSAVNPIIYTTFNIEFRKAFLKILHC

One series addresses D(2) dopamine receptor (Homo sapiens) (UniProt P14416).
Experiment: not given
Regarding `Oc1nc2c(OCCNCc3ccccc3)cccc2[nH]1`, the KiH was determined as 0.18 nM.

Regarding `c1ccc(CNCCOc2cccc3[nH]cnc23)cc1`, the KiH is 9.8 nM.

The compound `FC(F)(F)c1nc2c(OCCNCc3ccccc3)cccc2[nH]1` showed a KiH of 0.18 nM.

On to `FC(F)(F)c1nc2c3c(ccc2[nH]1)CCC(CNCc1ccccc1)O3` (stereo unspecified), for which the KiH stood at 5.75 nM.

On to `Cc1nc2c(OCCNCc3ccccc3)cccc2[nH]1`, for which the KiH was 4.4 nM.

Turning to `Oc1nc2c3c(ccc2[nH]1)CCC(CNCc1ccccc1)O3` (stereo unspecified), the KiH worked out at 0.14 nM.

`O=C1Cc2c(ccc3c2OC(CNCc2ccccc2)CC3)N1` (stereo unspecified) yielded a KiH of 0.37 nM.

For a further series, the target named is T1, 5-hydroxytryptamine receptor 1A (Homo sapiens, UniProt P08908).
T1 sequence (P08908 whole entry): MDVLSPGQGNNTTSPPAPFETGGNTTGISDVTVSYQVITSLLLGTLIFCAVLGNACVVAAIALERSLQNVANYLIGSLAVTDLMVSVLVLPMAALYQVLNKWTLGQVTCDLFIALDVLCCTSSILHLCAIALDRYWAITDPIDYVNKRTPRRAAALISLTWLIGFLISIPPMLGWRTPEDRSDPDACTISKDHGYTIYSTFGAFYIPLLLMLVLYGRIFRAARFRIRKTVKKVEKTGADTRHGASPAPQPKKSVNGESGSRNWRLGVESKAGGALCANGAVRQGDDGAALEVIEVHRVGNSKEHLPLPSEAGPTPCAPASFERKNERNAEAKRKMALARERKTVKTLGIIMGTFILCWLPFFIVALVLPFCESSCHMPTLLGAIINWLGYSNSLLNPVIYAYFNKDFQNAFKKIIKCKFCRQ
Experiment: not given
It is filed as functional, cell-based, CHO.
Compound `Clc1ccc2[nH]cc(CCCCN3CCN(c4ccc5c(c4)OCCO5)CC3)c2c1` showed an IC50 of 40 nM.

For `NC(=O)c1cc2cc(N3CCN(CCCCc4c[nH]c5ccc(F)cc45)CC3)ccc2o1`, the IC50 is 3 nM.

`N#Cc1ccc2[nH]cc(CCCCN3CCN(c4ccc5c(c4)OCCO5)CC3)c2c1` gave a half-maximal inhibitory concentration (IC50) of 1 nM.

As to `N#Cc1ccc2[nH]cc(CCCCN3CCN(c4ccc5c(c4)OCO5)CC3)c2c1`, inhibition was half-maximal at 0.7 nM (IC50).

`c1ccc2c(CCCCN3CCN(c4ccc5c(c4)OCCO5)CC3)c[nH]c2c1` showed an IC50 of 8 nM.

The compound `Fc1ccc2[nH]cc(CCCCN3CCN(c4ccc5c(c4)OCCO5)CC3)c2c1` had an IC50 of 5 nM.

For `Fc1ccc2[nH]cc(CCCCN3CCN(c4ccc5c(c4)OCO5)CC3)c2c1`, the IC50 is 4 nM.

System in another series: not listed separately
The experiment in a line: physchem.
In turn, `NCc1ccc(F)c(O)c1F` displayed a pKa of 9.81.

As to `NCc1cc(F)c(O)c(F)c1`, the pKa turned out to be 7.12.

In the next series the test system is Plasmodium berghei. Nature of the series: microbe, parasite or virus in culture. In kind it is functional, organism-based.
Regarding `CC1=C(C(F)(F)F)O[C@@H]2O[C@@]3(C)CC[C@H]4[C@H](C)CC[C@@H]1[C@@]24OO3`, the IC50 was 4.6 nM and the IC90 worked out at 7.3 nM.

In turn, `C[C@@H]1CC[C@H]2[C@@H](C)C(=O)O[C@@H]3O[C@@]4(C)CC[C@@H]1[C@]32OO4` [ARTEMISININ] displayed an IC50 of 8.9 nM and a concentration for an effect of 90% (IC90) of 14.5 nM.

Regarding `C[C@@H]1CC[C@H]2[C@@H](C)C(=C(F)F)O[C@@H]3O[C@@]4(C)CC[C@@H]1[C@]32OO4`, the IC50 was 20 nM.

The target in another series is Procathepsin L (Homo sapiens, UniProt P07711).
Sequence of Procathepsin L (P07711 whole entry): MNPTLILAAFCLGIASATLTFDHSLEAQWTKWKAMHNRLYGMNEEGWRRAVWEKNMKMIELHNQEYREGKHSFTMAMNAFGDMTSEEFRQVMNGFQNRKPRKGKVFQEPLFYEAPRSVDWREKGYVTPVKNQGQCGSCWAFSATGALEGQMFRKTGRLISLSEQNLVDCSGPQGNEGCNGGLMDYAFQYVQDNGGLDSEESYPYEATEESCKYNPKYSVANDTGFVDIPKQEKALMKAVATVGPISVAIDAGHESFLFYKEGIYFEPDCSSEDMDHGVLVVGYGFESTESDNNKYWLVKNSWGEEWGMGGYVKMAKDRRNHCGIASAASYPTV
Experiment: not given
The compound `N#Cc1nc(N2CCOCC2)nc(N(Cc2c(F)cccc2F)C2CCCC2)n1` had a Ki of 100 nM.

Regarding `N#Cc1nc(N2CCOCC2)nc(N(Cc2ccc(F)cc2F)C2CCCC2)n1`, the Ki was 126 nM.

Regarding `N#Cc1nc(N2CCOCC2)nc(N(Cc2ccncc2)C2CCCC2)n1`, affinity was put at a Ki of 158 nM.

With `N#Cc1nc(N2CCOCC2)nc(N(Cc2ccncn2)C2CCCC2)n1`, the Ki is 251 nM.

Take `N#Cc1nc(N2CCOCC2)nc(N(Cc2cnccn2)C2CCCC2)n1`: the Ki is 158 nM.

`N#Cc1nc(N2CCOCC2)nc(N(Cc2ncccn2)C2CCCC2)n1`: the inhibition constant (Ki) was 398 nM.

`N#Cc1nc(N2CCOCC2)nc(N(Cc2cccnc2)C2CCCC2)n1`: the affinity corresponds to a Ki of 100 nM.

As for `N#Cc1nc(N2CCOCC2)nc(N(Cc2cc(F)ccc2F)C2CCCC2)n1`, the affinity corresponds to a Ki of 251 nM.

Take `N#Cc1nc(N2CCOCC2)nc(N(Cc2cccc(F)c2)C2CCCC2)n1`: the Ki was 200 nM.

In turn, `N#Cc1nc(N2CCOCC2)nc(N(Cc2ccc(F)cc2)C2CCCC2)n1` had a Ki of 501 nM.

A further series has as its target Prothrombin (Homo sapiens, UniProt P00734).
Experiment: not given
`N=C(N)c1ccc([C@H]2[C@H]3C(=O)N(Cc4cccc(F)c4F)C(=O)[C@H]3[C@@H]3CCCN32)cc1` showed a Ki of 490 nM.

As for `N=C(N)c1ccc([C@H]2[C@H]3C(=O)N(Cc4ccc(Cl)cc4)C(=O)[C@H]3[C@@H]3CCCN32)cc1`, the Ki was 190 nM.

`N=C(N)c1ccc([C@H]2[C@H]3C(=O)N(Cc4ccccc4F)C(=O)[C@H]3[C@@H]3CCCN32)cc1` yielded a Ki of 500 nM.

Consider `N=C(N)c1ccc([C@H]2[C@H]3C(=O)N(Cc4ccc(F)cc4F)C(=O)[C@H]3[C@@H]3CCCN32)cc1`, for which the affinity, expressed as Ki, was 260 nM.

Compound `N=C(N)c1ccc([C@H]2[C@H]3C(=O)N(Cc4cccc(F)c4)C(=O)[C@H]3[C@@H]3CCCN32)cc1` returned a Ki of 360 nM.
